The source of these data is patent US20240246964A1 (Arbutus Biopharma Corporation, priority 2021, published 2024).

The term EC50 denotes the concentration at which the effect is half-maximal.

Chain of human PD-L1 (Q9NZQ7 19-290): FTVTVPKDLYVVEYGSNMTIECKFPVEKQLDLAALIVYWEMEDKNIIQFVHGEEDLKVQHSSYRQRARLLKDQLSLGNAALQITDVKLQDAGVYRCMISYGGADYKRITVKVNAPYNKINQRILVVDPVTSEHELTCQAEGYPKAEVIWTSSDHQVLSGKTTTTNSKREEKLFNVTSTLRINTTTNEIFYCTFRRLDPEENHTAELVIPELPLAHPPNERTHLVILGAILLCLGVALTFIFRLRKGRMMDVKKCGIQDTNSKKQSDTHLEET

The experiment concerns the target human PD-L1 (Homo sapiens (Human), UniProt Q9NZQ7). The experiment can be described thus: T cell activation luciferase reporter cell culture system (T Cell Activation Assay). It counts as cell-based. As to conditions: luciferase reporter assay; PD-L1 aAPC/CHO-K1 cells with PD-1 effector Jurkat T cells.
Regarding `COc1cc(-c2nccc(-c3cccc(-c4ccc(CNC5CCN(C(=O)C(C)C)CC5)c(OC)n4)c3Cl)c2Cl)ccc1CNC1CCN(C(C)=O)CC1` [Example 382, 1-(4-(((6-(3-(2-(4-(((1-acetylpiperidin-4-yl)amino)methyl)-3-methoxyphenyl)-3-chloropyridin-4-yl)-2-chlorophenyl)-2-methoxypyridin-3-yl)methyl)amino)piperidin-1-yl)-2-methylpropan-1-one], the response was half-maximal at 15.3 nM (EC50).

`COc1cc(-c2nccc(-c3cccc4c3CC[C@@H]4Nc3nc(OC)c(CN4CC5(CNC(=O)C5)C4)nc3C(F)(F)F)c2Cl)ccc1CN1CC2(CNC(=O)C2)C1` [Example 366, (S)-2-(4-(3-Chloro-4-(1-((6-methoxy-5-((7-oxo-2,6-diazaspiro[3.4]octan-2-yl)methyl)-3-(trifluoromethyl)pyrazin-2-yl)amino)-2,3-dihydro-1H-inden-4-yl)pyridin-2-yl)-2-methoxybenzyl)-2,6-diazaspiro[3.4]octan-7-one] showed an EC50 of 159 nM.

The compound `COc1nc(-c2cccc(-c3ccnc(-c4cnc5c(CNC[C@@H]6CCC(=O)N6)cn(C)c5c4)c3Cl)c2Cl)ccc1CNC[C@@H]1CCC(=O)N1` [Cmpd 13, (S)-5-((((6-(2-chloro-3-(3-chloro-2-(1-methyl-3-(((((S)-5-oxopyrrolidin-2-yl)methyl)amino)methyl)-1H-pyrrolo[3,2-b]pyridin-6-yl)pyridin-4-yl)phenyl)-2-methoxypyridin-3-yl)methyl)amino)methyl)pyrrolidin-2-one] returned an EC50 of 77.7 nM.

In turn, `COc1cc(-c2nccc(-c3cccc(-c4ccc5c(CNC6CCOCC6)cn(C)c5n4)c3Cl)c2Cl)ccc1CNC[C@@H]1CCC(=O)N1` [Cmpd 59, (S)-5-(((4-(3-chloro-4-(2-chloro-3-(1-methyl-3-(((tetrahydro-2H-pyran-4-yl)amino)methyl)-1H-pyrrolo[2,3-b]pyridin-6-yl)phenyl)pyridin-2-yl)-2-methoxybenzyl)amino)methyl)pyrrolidin-2-one] returned an EC50 of 50.8 nM. Against the preceding compound, the EC50 is about 1.5-fold lower. To `COc1cc(-c2nccc(-c3cccc(-c4ccc(CNC5CC(=O)NC(=O)C5)c(OC)n4)c3Cl)c2Cl)ccc1CNC1CC(=O)NC(=O)C1` [Example 359, 4-(((6-(2-Chloro-3-(3-chloro-2-(4-(((2,6-dioxopiperidin-4-yl)amino)methyl)-3-methoxyphenyl)pyridin-4-yl)phenyl)-2-methoxypyridin-3-yl)methyl)amino)piperidine-2,6-dione] belongs 40.4 nM.

Compound `COc1cc(-c2ccnc(-c3cccc(-c4ccc(CNC5CCOCC5)c(OC)n4)c3Cl)c2Cl)ccc1CNC1CCOCC1` [Example 623, N-(4-(3-Chloro-2-(2-chloro-3-(6-methoxy-5-(((tetrahydro-2H-pyran-4-yl)amino)methyl)pyridin-2-yl)phenyl)pyridin-4-yl)-2-methoxybenzyl)tetrahydro-2H-pyran-4-amine] yielded an EC50 of 222 nM.

With `COc1cc(-c2nccc(-c3cccc(-c4ccc(CN5CC[C@H](O)C5)c(OC)n4)c3Cl)c2Cl)ccc1CN1CC[C@H](O)C1` [Example 435, (S)-1-((6-(2-Chloro-3-(3-chloro-2-(4-(((S)-3-hydroxypyrrolidin-1-yl)methyl)-3-methoxyphenyl)pyridin-4-yl)phenyl)-2-methoxypyridin-3-yl)methyl)pyrrolidin-3-ol], the half-maximal effective concentration (EC50) came to 9.95 nM.

`COc1nc(-c2cccc(-c3ccnc(-c4cc(OC)c5nc(CN[C@H]6CC[C@H](O)CC6)cn5c4)c3Cl)c2Cl)ccc1CN[C@H]1CC[C@H](O)CC1` [Example 453, (1r,4r)-4-(((6-(2-Chloro-3-(3-chloro-2-(2-((((1r,4r)-4-hydroxycyclohexyl)amino)methyl)-8-methoxyimidazo[1,2-a]pyridin-6-yl)pyridin-4-yl)phenyl)-2-methoxypyridin-3-yl)methyl)amino)cyclohexan-1-ol] came in with an EC50 of 270 nM. `COc1cc(-c2nccc(-c3cccc(-c4ccc(CN5CC6(CNC6)C5)c(OC)n4)c3Cl)c2Cl)ccc1CN1CC2(CNC(=O)C2)C1` [Example 520, 2-(4-(4-(3-(5-((2,6-Diazaspiro[3.3]heptan-2-yl)methyl)-6-methoxypyridin-2-yl)-2-chlorophenyl)-3-chloropyridin-2-yl)-2-methoxybenzyl)-2,6-diazaspiro[3.4]octan-7-one] displayed an EC50 of 66.6 nM. In turn, `COc1cc(-c2nccc(-c3cccc(NC(=O)c4ccc(CNC5CCN(C(C)=O)CC5)cn4)c3Cl)c2Cl)ccc1CNC1CCN(C(C)=O)CC1` [Example 673, 5-(((1-Acetylpiperidin-4-yl)amino)methyl)-N-(3-(2-(4-(((1-acetylpiperidin-4-yl)amino)methyl)-3-methoxyphenyl)-3-chloropyridin-4-yl)-2-chlorophenyl)picolinamide] returned a concentration for a half-maximal effect (EC50) of 234 nM. `COc1nc(-c2cccc(-c3ccnc(-c4cc(OC)c5nc(CNC[C@@H]6CCC(=O)N6)nn5c4)c3Cl)c2Cl)ccc1CNC[C@@H]1CCC(=O)N1` [Example 258, (S)-5-((((6-(2-chloro-3-(3-chloro-2-(8-methoxy-2-(((((S)-5-oxopyrrolidin-2-yl)methyl)amino)methyl)-[1,2,4]triazolo[1,5-a]pyridin-6-yl)pyridin-4-yl)phenyl)-2-methoxypyridin-3-yl)methyl)amino)methyl)pyrrolidin-2-one] came in with an EC50 of 75.4 nM. Take `COc1cc(-c2nccc(-c3cccc(-c4ccc(CNC[C@@H]5CCC(=O)N5)c(OC)n4)c3Cl)c2Cl)cc2c1CN(CCC1(O)CCC1)CC2` [Cmpd 51, (S)-5-((((6-(2-chloro-3-(3-chloro-2-(2-(2-(1-hydroxycyclobutyl)ethyl)-8-methoxy-1,2,3,4-tetrahydroisoquinolin-6-yl)pyridin-4-yl)phenyl)-2-methoxypyridin-3-yl)methyl)amino)methyl)pyrrolidin-2-one]: the EC50 stood at 74.5 nM. `COc1cc(-c2nccc(-c3cccc(-c4ccc(CNC[C@@H]5CCC(=O)N5)c(OC)n4)c3Cl)c2Cl)ccc1CN[C@@H](C)C(=O)OC(C)C` [Cmpd 125, isopropyl (4-(3-chloro-4-(2-chloro-3-(6-methoxy-5-(((((S)-5-oxopyrrolidin-2-yl)methyl)amino)methyl)pyridin-2-yl)phenyl)pyridin-2-yl)-2-methoxybenzyl)-L-alaninate] yielded an EC50 of 361 nM. Against the preceding compound, the EC50 is about 4.8-fold higher.

As for `COc1cc(-c2nccc(-c3cccc(-c4ccc(CNC5CCCCC5)c(OC)n4)c3Cl)c2Cl)ccc1CNC1CCCCC1` [Example 524, N-((6-(2-Chloro-3-(3-chloro-2-(4-((cyclohexylamino)methyl)-3-methoxyphenyl)pyridin-4-yl)phenyl)-2-methoxypyridin-3-yl)methyl)cyclohexanamine], the concentration giving a half-maximal response (EC50) was 347 nM. The figure for `COc1cc(-c2nccc(-c3cccc(-c4ccc(CNC[C@@H]5CCC(=O)N5)c(OC)n4)c3Cl)c2Cl)ccc1CN1CCC[C@H]1C(=O)OC(C)C` [Cmpd 68, isopropyl (4-(3-chloro-4-(2-chloro-3-(6-methoxy-5-(((((S)-5-oxopyrrolidin-2-yl)methyl)amino)methyl)pyridin-2-yl)phenyl)pyridin-2-yl)-2-methoxybenzyl)-L-prolinate] is 413 nM; for `COc1cc(-c2nccc(-c3cccc4c3CC[C@@H]4Oc3nc(OC)c(CNC[C@H](C)O)cc3C(F)(F)F)c2Cl)ccc1CNC[C@H](C)O` [Example 270, (S)-1-(((6-(((S)-4-(3-Chloro-2-(4-((((S)-2-hydroxypropyl)amino)methyl)-3-methoxyphenyl)pyridin-4-yl)-2,3-dihydro-1H-inden-1-yl)oxy)-2-methoxy-5-(trifluoromethyl)pyridin-3-yl)methyl)amino)propan-2-ol] it is 85.5 nM.
